Experimental findings from US12246010B2, “Formulations of tegavivint and related compounds” (Iterion Therapeutics, Inc., priority 2018, dated 2025) are described below.

Values joined by “and” are separate entries in the source; they are usually repeats but may differ in a detail not shown here. Equal values may be shown once.

Data set [1] is described as follows: Aerosol concentration of nebulized formulations in rodent nose-only exposure chamber. It is filed as physicochemical. The text has this:
A series of BC-2059 (tegavivint) formulations were aerosolized using vibrating mesh and compressed air nebulizers to determine the most efficient method of aerosol generation. The aerosols were characterized for aerosol concentration and particle size distribution in a rodent nose-only exposure chamber. Each formulation had different variables adjusted to assess impact on aerosol performance. These included particle size reduction of the API, excipient profile and nebulizer utilized.
Test article BC-2059 was suspended in 0.1% Tween 80 in purified water at a concentration of 15 mg/mL. The suspension was sonicated using a Covaris S220x Ultrasonicator (Covaris, Boston MA) and then mixed on a vortex for one minute. Sonication and mixing by vortex was repeated a total of 15 times.
The remaining bulk BC-2059 powder was ground in a Planetary Ball Mill (Retsch, Germany) for 10 minutes at 150 RPMs utilizing a 12 mL ball mill jar and three metal balls. The milled BC-2059 powder was suspended in 0.1% Tween 80 in purified water at a concentration of 15 mg/mL. The suspension was sonicated using the procedure outlined above.
The remaining bulk BC-2059 powder was ground in a Planetary Ball Mill (Retsch, Germany) for 60 minutes at 300 RPMs utilizing a 12 mL ball mill jar and three metal balls. The milled BC-2059 powder was suspended in 0.1% Tween 80 in purified water and 10% PEG 400 in purified water at a concentration of 15 mg/mL. The suspensions were sonicated using the procedure outlined above. An additional 15 mg/mL BC-2059 suspension using 10% ethanol in purified water was prepared. The suspension was sonicated for 10 minutes using a VWR sonicator (VWR, Radnor PA) and mixed for 4 minutes using a vortex mixer. […]
The aerosols were generated from formulations prepared with a series of surfactants with 4 separate nebulizers (Aeroneb Solo (Aerogen, Ireland), Pari LC Plus (Pari Respiratory Equipment Inc. Midlothian VA), Hospitak Up Mist, Hospitak Inc. Farmdale, NY), and Hudson Micro-Mist (Teleflex Inc. Research Triangle Park, NC) and transitioned into a 2 tier flow-past rodent exposure system.
The total concentration of aerosol in the exposure atmosphere was determined by the analysis of filter samples (GF/A 47-mm filters). Filter samples were collected at a nominal flow rate of 0.3 L/min. Filter samples collected throughout the study were analyzed gravimetrically to determine the total aerosol concentration, and submitted for HPLC analysis.
Filters with test article were extracted in 1:1 acetonitrile: methanol and analyzed by the HPLC-UV assay.

Data set [2] deals with bleomycin-induced idiopathic pulmonary fibrosis (IPF). As to the kind of experiment: Bleomycin-induced IPF mouse model: body weight. It is filed as in vivo, C57BL/6 male mice. As for the experimental part: The purpose of this experiment was to investigate tegavivint nanosuspension in a mouse model of bleomycin-induced idiopathic pulmonary fibrosis (IPF). Test articles were as follows:
Tegavivint (BC2059) in a nano-milled suspension 25 mg/mL in 0.625% poloxamer 188 and 10% sorbitol. The test article was refrigerated at about 4° C.
Nebulizing equipment was Altera ultrasonic eRapid machine nebulizer (model #678G1002).
Animals were 8-12 week old C57BL/6 male mice (Jackson Lab, Bar Harbor, ME).
Murine model of pulmonary fibrosis was induced by intratracheally (IT) injected bleomycin (APP Pharmaceuticals, Schaumburg, IL). One dose of 0.025 U bleomycin dissolved in 50 microliters of Saline 0.9%, or PBS as control was administered to each animal on day 0.
Tegavivint nanosuspension was applied to Group 3 in the form of aerosols, through the method of whole body exposure. The mice were placed inside a plastic box. This box was sealed and connected by one of its sides to the outlet of the nebulizer device, and on the other side to a system of closed water. The whole procedure was carried out inside the fume hood of the animal room. In each treatment session, 5 ml of 25 mg/ml Tegavivint (125 mg) was nebulized over 15 min to each group of 4-5 mice in the chamber. […]
The body weight of animals was recorded on Days 0, 5, 8, 12, 16, 19, and 21.

The mark [3] stands for this setting: Covaris and Ball Mill (60 min), 0.1% Tween 80, 15.06 mg/mL, Hospitak.
The mark [4] stands for this setting: Covaris and Ball Mill (60 min), 0.1% Tween 80, 15.08 mg/mL, Hudson MicroMist.
[5] abbreviates: Covaris and Ball Mill (60 min), 10% PEG-400, 15.08 mg/mL, Hudson MicroMist.
[6] abbreviates: Covaris, 0.1% Tween 80, 15.04 mg/mL, Aeroneb Solo.
[7] abbreviates: Sonicator and Ball Mill (60 min), 10% Ethanol, 15.00 mg/mL, Hudson MicroMist.

With `C[C@@H]1C[C@H](C)CN(S(=O)(=O)c2ccc3c(c2)C(=NO)c2cc(S(=O)(=O)N4C[C@H](C)C[C@H](C)C4)ccc2C3=NO)C1` [BC2059, tegavivint], the “Total Aerosol Conc.” value in data set [1] (Covaris and Ball Mill (10 min), 0.1% Tween 80, 15.58 mg/mL, Pari LC Plus) was 0.123 mg/L; in data set [1] (setting [3]) it was 0.229 mg/L; in data set [1] (setting [4]) it was 0.093 mg/L; in data set [1] (setting [5]) it was 2.58 mg/L; in data set [1] (setting [6]) it was 0.247 mg/L; in data set [1] (setting [7]), 0.027 mg/L. Besides, the “BC-2059 Aerosol Conc.” value in data set [1] (setting [3]) is 66 µg/L; in data set [1] (setting [4]), 86 µg/L; in data set [1] (setting [5]), 7.2 µg/L; in data set [1] (setting [6]), 1.3 µg/L; in data set [1] (setting [7]) it was 20.2 µg/L. The “effect on body weight loss caused by bleomycin” value in data set [2] (Group 3, inhaled) was “reversed the body weight loss”. In addition, the “Change in body weight (%)” value in data set [2] (Group 3: IT bleomycin Day 0, 5 ml of 25 mg/ml tegavivint aerosol BID Day 5-21, individual animals) is −2.83% and 5.2% and 7.3% (2×) and 7.9%.
